System: symptomatic Raynaud's Phenomenon attacks in subjects with Systemic Sclerosis
Experiment: Multicenter double-blind randomized placebo-controlled study of intravenous iloprost, efficacy by ePRO diary
Assay type: in vivo, human
Conditions: for Subgroup comparison of prior vs after, LS mean difference in change (SE) of treatment difference: randomized prior to vs after 3 Jun. 2019
From the text: This was a multicenter, double-blind, randomized, placebo-controlled study to provide an initial evaluation of the effect of iloprost on the symptomatic relief of RP attacks in subjects with SSc. As a pilot study, it was not powered to provide a definitive estimate of the effect of iloprost. Importantly, this study tested the feasibility of collecting the study endpoints and logistics of study operations that included, among other things, an electronic patient-reported outcomes (ePRO) diary for the evaluation of subject response to the treatment, as well as the infusion workflow for this multiday treatment. Subjects were allowed to continue receiving stable standard of care therapies for the management of symptomatic RP (e.g., calcium channel blockers, angiotensin-converting enzyme inhibitors, statins, fluoxetine, and low-dose acetylsalicylic acid) or may have participated without the use of background standard of care therapies. The study consisted of an up to 30-day screening period during which subjects completed a daily ePRO diary to record information regarding all symptomatic RP attacks (e.g., severity of symptoms, duration, and hand function). […] The baseline ePRO diary completion period may have been extended beyond 10 days in order to accommodate the preferred Monday through Friday dosing schedule. The ePRO symptomatic RP attack data from this time period were used for the calculation of the baseline frequency of symptomatic RP attacks. […] Randomization was stratified based on the use of phosphodiesterase inhibitors at screening. Study drug administration began on Day 1, and subjects received study drug for 5 consecutive days (e.g., Monday through Friday) as an IV infusion over 6 hours each day via a peripheral line (NovaCath™ Integrated IV Catheter System) or a peripherally inserted central catheter using an infusion pump. […] On Day 1, study drug was initiated at a starting dose of 0.5 ng/kg/min, and dose increases occurred every 30 minutes (±5 minutes) in increments of 0.5 ng/kg/min up to 2.0 ng/kg/min or the individual tolerated dose. If dose-limiting adverse events (e.g., headache, flushing, jaw pain, myalgia, nausea, or vomiting) occurred that could not be tolerated by the subject, or if the subject experienced symptomatic hypotension, then the dose was reduced in a step-wise manner by 0.5 ng/kg/min every 30 minutes (±5 minutes) until a tolerated dose was determined or the infusion was stopped until the symptoms resolved at which point the study drug was reinitiated at a previously tolerated dose. If symptomatic hypotension or a dose-limiting adverse event occurred during administration of iloprost at the starting dose (i.e., 0.5 ng/kg/min), the infusion was reduced to 0.25 ng/kg/min. […] Blood pressure and heart rate were monitored 15 minutes (±5 minutes) prior to and after all dose changes. The maximum tolerated dose was maintained for the remaining 6-hour daily period. At the end of the 6-hour infusion period, the dose was stopped. Subjects were to be monitored for up to 1 hour after completion of study drug infusion (i.e., vital signs were obtained 15 minutes [+5 minutes] and 1 hour [+15 minutes] after completion of the infusion). […] Vital signs were measured prior to study drug administration and at 15 minutes (±5 minutes) prior to and after all dose changes during the infusion. Additionally, vital signs were monitored at 15 minutes (±5 minutes) and 1 hour (±15 minutes) after completion of the 6-hour infusion. Subjects were contacted via telephone on Day 8 to ensure they resumed completion of the daily ePRO diary; subjects completed the ePRO diary from Day 8 through Day 21. On Day 22, subjects returned to the clinic for post-treatment evaluations. A follow-up visit occurred 30 days after the last administration of study drug (Day 35). Symptomatic Raynaud's Phenomenon attacks: […] The attack was considered over when the color changed back to pre-attack color (normal) and the symptoms returned to the subject's pre-attack level. […]

[1] = baseline to double-blind endpoint
[2] = subgroup randomized after 3 Jun. 2019, N = 9
[3] = subgroup randomized prior to 3 Jun. 2019, n = 8

`CC#CCC(C)[C@H](O)/C=C/[C@@H]1[C@H]2C/C(=C/CCCC(=O)O)C[C@H]2C[C@H]1O` (stereo partly drawn) [Iloprost, (5E)-5-[(3aS,4R,5R,6aS)-5-hydroxy-4-[(E,3S)-3-hydroxy-4-methyloct-1-en-6-ynyl]-3,3a,4,5,6,6a-hexahydro-1H-pentalen-2-ylidene]pentanoic acid] was tested, and the “Average overall severity of symptomatic RP attacks, LS mean difference in change vs placebo (SE)” value (11-point NRS) was −0.47 (0.604), the “Average overall severity of symptomatic RP attacks, Double-blind endpoint, Mean (SD)” value (11-point NRS, Days 8 to 21, N = 17) was 3.39 (2.169) and the “Change from baseline in average overall severity of symptomatic RP attacks, LS mean (SE)” value (11-point NRS, N = 17) was −2.12 (0.439). The “Average overall severity of symptomatic RP attacks, Baseline, Mean (SD)” value (11-point NRS, before treatment, N = 17) was 5.30 (1.818), the “Change from baseline in weekly frequency of symptomatic RP attacks, LS mean (SE)” value (“Change from baseline in weekly frequency … (SE)” for short) (ANCOVA, baseline to double-blind endpoint, N = 17) was −15.09 (2.961) and the “Weekly frequency of symptomatic RP attacks, LS mean difference in change vs placebo (SE)” value (ANCOVA, iloprost vs placebo, N = 17 per group) was −0.77 (4.047). The “Average weekly duration of symptomatic RP attacks, Double-blind endpoint, Mean (SD)” value (Days 8 to 21, N = 17) was 345.82 (402.713) minutes, the “Weekly frequency of symptomatic RP attacks, Double-blind endpoint, Mean (SD)” value (Days 8 to 21 after IV infusion 6 h/day for 5 days, up to 2.0 ng/kg/min, N = 17) was 23.57 (14.578) and the “Change from baseline in average weekly duration of symptomatic RP attacks, LS mean (SE)” value (N = 17) was −267.49 (78.273) minutes. For the same molecule, the “Difference in change in weekly frequency of symptomatic RP attacks compared to placebo, significance” value (all analytical measures) was “not statistically significant”, the “Weekly frequency of symptomatic RP attacks, Baseline, Mean (SD)” value (from here on “Weekly frequency … Baseline, Mean (SD)”) (baseline ePRO diary period (10 to 25 days) before treatment, N = 17) was 37.05 (18.643) and the “Change in average Raynaud's Condition Score, difference compared to placebo” value [1] was “not statistically significant”. The “Change in average worst symptoms (pain, numbness, tingling, discomfort) associated with symptomatic RP, difference compared to placebo” value [1] was “not statistically significant”, the “Subject assessment of overall improvement using PGI-S and PGI-C, difference compared to placebo” value [1] was “not statistically significant” and the “Average weekly duration of symptomatic RP attacks, Baseline, Mean (SD)” value (before treatment, N = 17) was 586.97 (584.577) minutes. For the same molecule, the “Average weekly duration of symptomatic RP attacks, LS mean difference in change vs placebo (SE)” value (iloprost vs placebo) was −83.89 (107.728) minutes, the “Subgroup comparison of prior vs after, LS mean difference in change (SE) of treatment difference” value was −6.91 (8.121) and the “Subgroup comparison of prior vs after, LS mean difference in change (SE) of treatment difference” value (listed as iloprost) was -6.91 (8.121). For the same molecule, the “Weekly frequency of symptomatic RP attacks, LS mean difference in change vs placebo (SE)” value (subgroup randomized after 3 Jun. 2019) was 2.04 (5.453), the “Change from baseline in weekly frequency … (SE)” value [2] was −15.38 (4.082) and the “Weekly frequency of symptomatic RP attacks, Double-blind endpoint, Mean (SD)” value [2] was 23.73 (17.337). For the same molecule, the “Weekly frequency … Baseline, Mean (SD)” value (subgroup randomized after 3 Jun. 2019, N = 9, before treatment) was 37.23 (19.269), the “Weekly frequency of symptomatic RP attacks, LS mean difference in change vs placebo (SE)” value (subgroup randomized prior to 3 Jun. 2019) was −4.87 (6.074) and the “Weekly frequency of symptomatic RP attacks, LS mean difference in change vs placebo (SE)” value (subgroup randomized prior to 3 Jun. 2019, listed as iloprost) was -4.87 (6.074). The “Change from baseline in weekly frequency … (SE)” value [3] was −14.83 (4.180), the “Weekly frequency of symptomatic RP attacks, Double-blind endpoint, Mean (SD)” value [3] was 23.39 (11.923) and the “Weekly frequency … Baseline, Mean (SD)” value (subgroup randomized prior to 3 Jun. 2019, n = 8, before treatment) was 36.85 (19.235).

— patent publication US20240299414A1, “SUBCUTANEOUS OR INTRAMUSCULAR INJECTION FORMULATIONS OF ILOPROST” (EICOS SCIENCES, INC., priority 2020, published 2024)
